Measurements reported in ChEMBL document CHEMBL1157133, “Design, synthesis, and interaction study of quinazoline-2(1H)-thione derivatives as novel potential Bcl-xL inhibitors” (J Med Chem, 2010).
pEC50, pIC50, pKd: −log10 of the molar value. Active and inactive are the calls of the source. The rule behind the calls is not given here.

What was measured:
Bcl-2-like protein 1 [1] = target: Bcl-2-like protein 1 (Homo sapiens, UniProt Q07817, E96A); experiment: Binding affinity to human Bcl-XL E96A mutant by surface plasma resonance based biosensor system
HepG2 = experiment: cells; settings: Homo sapiens, HepG2, 48 h
Description: Cytotoxicity against human HepG2 cells after 48 hrs by MTT assay

OVCAR-3 = experiment: Cytotoxicity against human OVCAR-3 cells after 48 hrs by MTT assay; settings: OVCAR-3, 48 h
[2] = target: Apoptosis regulator Bcl-2 (Homo sapiens, UniProt P10415); experiment: Displacement of FITC labeled BH3 peptide from His-tagged human BCL2 after 1 hr by fluorescence polarization assay
K562 [3] = experiment: Induction of apoptosis in human K562 cells assessed activation of caspase9 at 25 uM after 48 hrs by immunoblotting; assay type: functional, cell-based
K562 [4] = experiment: cells; settings: Homo sapiens, K562, 48 h
Description: Cytotoxicity against human K562 cells after 48 hrs by MTT assay

PC-3 = experiment: Cytotoxicity against human PC3 cells after 48 hrs by MTT assay; assay type: functional, cell-based
Bcl-2-like protein 1 [5] = target: Bcl-2-like protein 1 (Homo sapiens, UniProt Q07817, Y195A); experiment: Binding affinity to human Bcl-XL Y195A mutant by surface plasma resonance based biosensor system
Bcl-2-like protein 1 [6] = target: T1, Bcl-2-like protein 1 (Homo sapiens, UniProt Q07817); experiment: Displacement of FITC-labeled BH3 peptide from human Bcl-XL after 1 hr by fluorescence polarization assay
K562 [7] = experiment: Induction of apoptosis in human K562 cells assessed reduction of mitochondrial membrane potential after 24 hrs using JC1 fluorescent dye
[8] = target: Induced myeloid leukemia cell differentiation protein Mcl-1 homolog (Mus musculus, UniProt P97287); experiment: Displacement of FITC-labeled BH3 peptide from GST-tagged mouse Mcl1 after 1 hr by fluorescence polarization assay
[9] = Cytotoxicity against human Bel7404 cells after 48 hrs by MTT assay; settings: BEL-7404, 48 h
K562 [10] = experiment: Induction of apoptosis in human K562 cells assessed as increase of reactive oxygen species level at 25 uM after 48 hrs using DCFH-DA fluorescent dye relative to control; assay type: functional
K562 [11] = experiment: Induction of apoptosis in human K562 cells assessed as chromatin condensation; assay type: functional, cell-based
K562 [12] = experiment: Induction of apoptosis in human K562 cells assessed activation of caspase3 at 25 uM after 48 hrs by immunoblotting; assay type: functional, cell-based
Bcl-2-like protein 1 [13] = target: T1, Bcl-2-like protein 1; experiment: Binding affinity to human Bcl-XL by surface plasma resonance based biosensor system
Bcl-2-like protein 1 [14] = target: T1, Bcl-2-like protein 1; experiment: Inhibition of human Bcl-XL
A2780 = experiment: cells; settings: Homo sapiens, A2780, 48 h
Description: Cytotoxicity against human A2780 cells after 48 hrs by MTT assay

Bcl-2-like protein 1 [15] = target: Bcl-2-like protein 1 (Homo sapiens, UniProt Q07817, Y101A); experiment: Binding affinity to human Bcl-XL Y101A mutant by surface plasma resonance based biosensor system
Sequence of Bcl-2-like protein 1 (Homo sapiens, UniProt Q07817, Y101A) (Q07817 whole entry Y101A): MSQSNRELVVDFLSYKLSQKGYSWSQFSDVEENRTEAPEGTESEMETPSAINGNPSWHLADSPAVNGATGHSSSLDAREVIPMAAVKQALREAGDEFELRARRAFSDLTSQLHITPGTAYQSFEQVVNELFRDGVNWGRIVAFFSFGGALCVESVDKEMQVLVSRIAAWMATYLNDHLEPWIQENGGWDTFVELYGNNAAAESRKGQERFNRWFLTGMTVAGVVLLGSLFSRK

T1 sequence (Q07817 whole entry): as the sequence (Q07817 whole entry Y101A) above, with A101Y counted along it
Sequence of Induced myeloid leukemia cell differentiation protein Mcl-1 homolog (P97287 whole entry): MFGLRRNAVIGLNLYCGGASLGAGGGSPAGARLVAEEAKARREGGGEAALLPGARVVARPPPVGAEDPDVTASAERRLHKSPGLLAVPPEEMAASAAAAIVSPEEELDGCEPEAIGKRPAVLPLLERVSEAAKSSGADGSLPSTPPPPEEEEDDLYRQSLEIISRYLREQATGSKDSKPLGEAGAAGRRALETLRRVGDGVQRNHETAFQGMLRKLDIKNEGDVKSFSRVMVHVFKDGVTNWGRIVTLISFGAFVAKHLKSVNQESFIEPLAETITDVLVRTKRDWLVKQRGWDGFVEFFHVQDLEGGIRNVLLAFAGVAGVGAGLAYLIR
Sequence of Bcl-2-like protein 1 (Homo sapiens, UniProt Q07817, E96A) (Q07817 whole entry E96A): as the sequence (Q07817 whole entry Y101A) above, with E96A, A101Y counted along it
Sequence of Bcl-2-like protein 1 (Homo sapiens, UniProt Q07817, Y195A) (Q07817 whole entry Y195A): as the sequence (Q07817 whole entry Y101A) above, with A101Y, Y195A counted along it
Sequence of Apoptosis regulator Bcl-2 (P10415 whole entry): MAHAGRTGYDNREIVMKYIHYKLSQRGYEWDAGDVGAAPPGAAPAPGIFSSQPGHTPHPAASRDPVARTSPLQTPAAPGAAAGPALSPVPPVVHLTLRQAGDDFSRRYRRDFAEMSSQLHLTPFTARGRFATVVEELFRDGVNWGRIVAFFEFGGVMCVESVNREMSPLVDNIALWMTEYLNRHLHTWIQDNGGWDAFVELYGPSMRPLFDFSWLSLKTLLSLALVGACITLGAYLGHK

SMILES: COc1ccccc1C1C2=C(N=c3s/c(=C\c4cccc(OCC(=O)O)c4)c(=O)n31)c1ccccc1CC2 (stereo not given)
- pKd (Bcl-2-like protein 1 [1]): 4.46
- pEC50 (HepG2): 4.90
- pEC50 (OVCAR-3): 5.81
- pIC50 [2]: 5.51
- Activity (K562 [3]): Active
- pEC50 (K562 [4]): 4.29
- Activity (PC-3): Dose-dependent effect
- pEC50 (PC-3; PC-3, 48 h): 4.42
- pKd (Bcl-2-like protein 1 [5]): 3.04
- pIC50 (Bcl-2-like protein 1 [6]): 5.47
- Activity (K562 [7]): Dose-dependent effect
- pIC50 [8]: 5.19
- pEC50 [9]: 5.10
- fold change (FC) (K562 [10]): 2.7
- Activity (K562 [11]): Active
- Activity (K562 [12]): Active
- pKd (Bcl-2-like protein 1 [13]): 5.02
- pIC50 (Bcl-2-like protein 1 [14]): 5.47
- pEC50 (A2780): 5.34
- pKd (Bcl-2-like protein 1 [15]): 5.16
